According to patent EP0851902B1, “METHOD FOR COATING” (F2 Chemicals Ltd., priority 1995, dated 1997):

Assay: Water solubility (typical physical properties, Table 1)
Assay type: physicochemical
Details: components of the 2% w/w solution of resin in perfluorohexane
Method: A solution of a fluoropolymer resin, prepared in accordance with details given in PCT Patent Application No. WO 94/05498 (and documents referred to therein), was prepared by dissolving sufficient of it, at room temperature in perfluorohexane ("FLUTEC" PP-1 from BNFL Fluorochemicals Ltd) to make a 2% w/w solution.

- Water Solubility: Insoluble
SMILES: FC(F)(F)C(F)(F)C(F)(F)C(F)(F)C(F)(F)C(F)(F)F [SOLVENT, perfluorohexane]
